Laboratory results as given in patent US4401660A, “Ester derivatives of 5-O-mycaminosyl tylonolide and method of using same” (Eli Lilly and Company, priority 1981, dated 1983).

Key:
[1] = test system: Staphylococcus aureus S13E; test: MIC, standard agar-dilution assay (Table II); assay type: cell-based; set-up: unit not given here
Procedure: (§1) The MIC's in Table II were determined by standard agar-dilution assays. The MIC's in Table III were obtained using a conventional broth-dilution microtiter test.

[2] = test system: Staphylococcus aureus V41; test: MIC, standard agar-dilution assay (Table II); assay type: cell-based; set-up: unit not given here; conditions: Staphylococcus aureus V41, penicillin-resistant strain
Procedure: as §1

[3] = test system: Staphylococcus aureus X1.1; test: MIC, standard agar-dilution assay (Table II); assay type: cell-based; set-up: unit not given here
Procedure: as §1

[4] = test system: Staphylococcus aureus X400; test: MIC, standard agar-dilution assay (Table II); assay type: cell-based; set-up: unit not given here; conditions: Staphylococcus aureus X400, methicillin-resistant strain
Procedure: as §1

[5] = test system: Staphylococcus epidermidis EPI1; test: MIC, standard agar-dilution assay (Table II); assay type: cell-based; set-up: unit not given here
Procedure: as §1

[6] = test system: Staphylococcus epidermidis EPI2; test: MIC, standard agar-dilution assay (Table II); assay type: cell-based; set-up: unit not given here
Procedure: as §1

[7] = test system: Streptococcus Group D 9960; test: MIC, standard agar-dilution assay (Table II); assay type: cell-based; set-up: unit not given here
Procedure: as §1

[8] = test system: Streptococcus Group D X66; test: MIC, standard agar-dilution assay (Table II); assay type: cell-based; set-up: unit not given here
Procedure: as §1

[9] = test system: Streptococcus pneumoniae Park I; test: MIC, standard agar-dilution assay (Table II); assay type: cell-based; set-up: unit not given here
Procedure: as §1

[10] = test system: Streptococcus pyogenes C203; test: MIC, standard agar-dilution assay (Table II); assay type: cell-based; set-up: unit not given here
Procedure: as §1

[11] = test system: Mycoplasma gallisepticum; test: MIC, broth-dilution microtiter test (Table III); assay type: cell-based; set-up: unit not given here
Procedure: as §1

[12] = test system: Mycoplasma hyorhinis; test: MIC, broth-dilution microtiter test (Table III); assay type: cell-based; set-up: unit not given here
Procedure: as §1

[13] = test system: Mycoplasma synoviae; test: MIC, broth-dilution microtiter test (Table III); assay type: cell-based; set-up: unit not given here
Procedure: as §1

[14] = test system: Pasteurella haemolytica 22C; test: MIC, broth-dilution microtiter test (Table III); assay type: cell-based; set-up: unit not given here
Procedure: as §1

[15] = test system: Pasteurella haemolytica 23C; test: MIC, broth-dilution microtiter test (Table III); assay type: cell-based; set-up: unit not given here
Procedure: as §1

[16] = test system: Pasteurella haemolytica 41D; test: MIC, broth-dilution microtiter test (Table III); assay type: cell-based; set-up: unit not given here
Procedure: as §1

[17] = test system: Pasteurella multocida 17E; test: MIC, broth-dilution microtiter test (Table III); assay type: cell-based; set-up: unit not given here; conditions: bovine isolate
Procedure: as §1

[18] = test system: Pasteurella multocida 22A; test: MIC, broth-dilution microtiter test (Table III); assay type: cell-based; set-up: unit not given here
Procedure: as §1

[19] = test system: Pasteurella multocida 40G; test: MIC, broth-dilution microtiter test (Table III); assay type: cell-based; set-up: unit not given here
Procedure: as §1

[20] = test system: Pasteurella multocida 60A; test: MIC, broth-dilution microtiter test (Table III); assay type: cell-based; set-up: unit not given here; conditions: avian isolate
Procedure: as §1

[21] = test system: Pasteurella multocida 68C; test: MIC, broth-dilution microtiter test (Table III); assay type: cell-based; set-up: unit not given here
Procedure: as §1

[22] = test system: Staphylococcus aureus; test: MIC, broth-dilution microtiter test (Table III); assay type: cell-based; set-up: unit not given here
Procedure: as §1

[23] = test system: Streptococcus sp. 80; test: MIC, broth-dilution microtiter test (Table III); assay type: cell-based; set-up: unit not given here
Procedure: as §1

[24] = test system: Pasteurella multocida; test: Treatment of Pasteurella infections in chicks (Table V); assay type: in vivo, one-day-old chicks; conditions: Pasteurella multocida, sc, 4 h; 30 mg/kg by subcutaneous injection one and four hours post challenge; read-out: Deaths in Treated Chicks/Number Treated (converted)
Procedure: Certain OMT ester derivatives are active in vivo against Pasteurella infections. Table V summarizes the results of tests in which the ester derivatives were administered to one-day-old chicks at a dosage level of 30 mg/kg by subcutaneous injection one and four hours post challenge of the chicks with Pasteurella multocida (0.1 ml of a 10^-3 dilution of a 20-hour tryptose broth culture of avian P. multocida given subcutaneously). All nonmedicated infected chicks (ten in each control group) died within 24 hours of Pasteurella challenge.

[25] = test system: Haemophilus influenzae Holt; test: MIC, standard agar-dilution assay (Table II); assay type: cell-based; set-up: unit not given here; conditions: ampicillin-sensitive strain
Procedure: as §1

[26] = test system: Haemophilus influenzae R252; test: MIC, standard agar-dilution assay (Table II); assay type: cell-based; set-up: unit not given here; conditions: Haemophilus influenzae R252, ampicillin-resistant strain
Procedure: as §1

SMILES | minimal inhibitory concentration (MIC) [1] | minimal inhibitory concentration (MIC) [2] | minimal inhibitory concentration (MIC) [3] | minimal inhibitory concentration (MIC) [4] | minimal inhibitory concentration (MIC) [5] | minimal inhibitory concentration (MIC) [6] | minimal inhibitory concentration (MIC) [7] | minimal inhibitory concentration (MIC) [8] | minimal inhibitory concentration (MIC) [9] | minimal inhibitory concentration (MIC) [10] | minimal inhibitory concentration (MIC) [11] | minimal inhibitory concentration (MIC) [12] | minimal inhibitory concentration (MIC) [13] | minimal inhibitory concentration (MIC) [17] | minimal inhibitory concentration (MIC) [20] | minimal inhibitory concentration (MIC) [22] | minimal inhibitory concentration (MIC) [23] | mortality at 30 mg/kg [24] [%] | minimal inhibitory concentration (MIC) [25] | minimal inhibitory concentration (MIC) [26] | other results
CCC1OC(=O)CC(O)C(C)C(OC2OC(C)C(O)C(N(C)C)C2OC(C)=O)C(CC=O)CC(C)C(=O)C=CC(C)=CC1COC(=O)Cc1ccc(Cl)cc1 (centres unmarked) [Compound 31, 2'-O-Acetyl-23-O-(p-chlorophenylacetyl)-OMT] | 0.125 | 0.125 | 0.125 | 0.25 | 0.125 | 0.25 | 0.125 | 0.125 | 0.03 | 0.125 | < 0.05 | 3.12 | < 0.05 | 1.56 | 0.78 | < 0.05 | < 0.05 | 100 | – | – | minimal inhibitory concentration (MIC) [14]: 1.56; minimal inhibitory concentration (MIC) [15]: 1.56; minimal inhibitory concentration (MIC) [16]: 3.12; minimal inhibitory concentration (MIC) [18]: 1.56; minimal inhibitory concentration (MIC) [19]: 1.56; minimal inhibitory concentration (MIC) [21]: 0.78
CCC1OC(=O)CC(O)C(C)C(OC2OC(C)C(OC(C)=O)C(N(C)C)C2OC(C)=O)C(CC=O)CC(C)C(=O)C=CC(C)=CC1COC(=O)[C@H](O)c1ccccc1 (stereo partly drawn) [Compound 41, 2',4'-Di-O-acetyl-23-O-(D-mandeloyl)-OMT] | 0.25 | 0.25 | 0.125 | 0.5 | 0.25 | 0.25 | 0.25 | 0.125 | 0.03 | 0.06 | 0.195 | 12.5 | 0.39 | 3.12 | 3.12 | 0.78 | 0.195 | 100 | – | – | minimal inhibitory concentration (MIC) [14]: 6.25; minimal inhibitory concentration (MIC) [15]: 6.25; minimal inhibitory concentration (MIC) [16]: 6.25; minimal inhibitory concentration (MIC) [18]: 3.12; minimal inhibitory concentration (MIC) [19]: 3.12; minimal inhibitory concentration (MIC) [21]: 3.12
CCCCCCCC(=O)OCC1C=C(C)C=CC(=O)C(C)CC(CC=O)C(OC2OC(C)C(OC(C)=O)C(N(C)C)C2OC(C)=O)C(C)C(O)CC(=O)OC1CC (centres unmarked) [Compound 23] | 0.5 | 0.5 | 0.25 | 1 | 0.5 | 0.5 | 1 | 1 | 0.25 | 0.5 | 0.097 | 3.12 | 0.39 | 6.25 | 6.25 | 0.78 | 0.39 | 100 | 8 | 8 | –
CCCC(=O)OCC1C=C(C)C=CC(=O)C(C)CC(CC=O)C(OC2OC(C)C(OC(C)=O)C(N(C)C)C2OC(C)=O)C(C)C(O)CC(=O)OC1CC (centres unmarked) [Compound 15] | 0.25 | 0.5 | 0.25 | 0.5 | 0.25 | 0.5 | 0.5 | 0.5 | 0.25 | 0.25 | < 0.05 | 0.78 | < 0.05 | 1.56 | 1.56 | 0.39 | 0.097 | 100 | 2 | 2 | –
CCC1OC(=O)CC(O)C(C)C(OC2OC(C)C(OC(C)=O)C(N(C)C)C2OC(C)=O)C(CC=O)CC(C)C(=O)C=CC(C)=CC1COS(=O)(=O)c1ccc(NC(C)=O)cc1 (centres unmarked) [Compound 47, 23-O-(p-Acetamidobenzenesulfonyl)-2',4'-di-O-acetyl-OMT] | 1 | 2 | 1 | 2 | 1 | 2 | 1 | 1 | 0.125 | 0.125 | 0.195 | 12.5 | 1.56 | 6.25 | 3.12 | 0.78 | < 0.05 | 90 | – | – | minimal inhibitory concentration (MIC) [14]: 12.5; minimal inhibitory concentration (MIC) [15]: 12.5; minimal inhibitory concentration (MIC) [16]: 12.5; minimal inhibitory concentration (MIC) [18]: 12.5; minimal inhibitory concentration (MIC) [19]: 12.5; minimal inhibitory concentration (MIC) [21]: 3.12
CCCC(=O)OCC1C=C(C)C=CC(=O)C(C)CC(CC=O)C(OC2OC(C)C(O)C(N(C)C)C2O)C(C)C(O)CC(=O)OC1CC (centres unmarked) [Compound 16] | 0.25 | 0.25 | 0.25 | 0.5 | 0.25 | 0.25 | 0.25 | 0.25 | 0.06 | 0.25 | < 0.05 | 0.78 | 0.097 | 1.56 | 3.12 | 0.39 | 0.195 | 60 | 2 | 2 | –
CCCCCCCC(=O)OCC1C=C(C)C=CC(=O)C(C)CC(CC=O)C(OC2OC(C)C(O)C(N(C)C)C2O)C(C)C(O)CC(=O)OC1CC (centres unmarked) [Compound 24] | 0.25 | 0.5 | 0.25 | 0.5 | 0.25 | 0.25 | 0.5 | 0.5 | 0.125 | 0.5 | < 0.05 | 6.25 | 0.097 | 6.25 | 6.25 | 0.78 | 0.39 | 10 | 4 | 4 | –
